Assay results: patent US11000506B2, “Envenomation therapies and related pharmaceutical compositions, systems and kits” (OPHIREX, INC, priority 2014, dated 2021)
Entries after “also recorded” stand apart in the source; their conditions may differ. Where two headings read alike, the source gives them in different places.

Key:
[1] = target: bee venom PLA2 (Apis mellifera, UniProt P00630); assay type: biochemical
[2] = test system: C. scutulatus venom; test: survival of mice coinjected with C. scutulatus venom (FIG. 7A); assay type: in vivo; conditions: coinjected SC with C. scutulatus venom, single dose; N=4
[3] = varespladib alone, no venom; N=2
Text: (§1) V. berus is the most widely distributed viper in the world, ranging across Europe and Eurasia and as far north as the Arctic circle. It elaborates both hemo- and neurotoxins dangerous especially to children, pets and large animals such as horses.

[4] = test system: M. fulvius venom; test: protection of mice from M. fulvius venom (FIG. 6A-D); assay type: in vivo
Experimental: (§2) Mice received SC injections of M. fulvius venom at ^˜4 times the expected LD50 (typically estimated to be 1.3 mg/kg SC) (0.1 mg M. fulvius venom/animal for approximate dose of ^˜4 mg/kg). Prior to venom injection animals received either total dose 0.1 mg varespladib exipient (sham treatment) by SC route for calculated concentration of 4 mg/kg varespladib ^˜10-15 minutes before venom administration. Surviving animals were euthanized by CO2 inhalation at the end of experiments and observations periods ranging from ^˜12 hours to as long as 30 hours (survival being designated at 24 hours). […] In mice: Varespladib 4-8 mg/kg subcutaneously or orally with methylvarespladib, taken ad libitum. In rats, varespladib or excipient was administered intravenously at 30 seconds or 5 minutes following subcutaneous administration of venom at 4 or 8 mg/kg. Blood sampling and assay for sPLA2 activity was performed with samples taken from a surgically implanted jugular venous catheter at precise intervals (baseline, 30 minutes, 1 hour and 4 hours).
(§3) 6B Mice fed methylvarespladib or exipient ad libitum in biscuits had high-dose M. fulvius venom administered ^˜5 hours after introduction of the biscuits (N=2 each group). […] 6C Venom and varespladib (4 mg/kg) or venom and excipient were mixed just prior to administration and injected subcutaneously. At 5 hours (300 minutes, down-pointing arrow), surviving animals were retreated with ½ dose varespladib (2 mg/kg) or excipient. […] Mice either received venom and sham/excipient (N=7), methylvarespladib (N=3) or varespladib (N=7) ^˜30 seconds to 1.5 minute following venom administration. […] Confirmatory experiments and results of 6E-H were performed in rats by a contract laboratory to assess expand knowledge of varespladib's capacity to act in therapeutic mode and see if the effects of intravenous administration were similar to subcutaneous administration. 6E and 6F M. fulvius venom was administered subcutaneously (4 mg/kg or 8 mg/kg) and then excipient or varespladib 8 mg/kg was administered at 30 seconds or 5 minutes after envenomation.

[5] = test system: snake venom PLA2; assay type: biochemical
Experimental: (§4) Background. Phospholipase A2 (PLA2) catalyzes the hydrolysis of phospholipids at the sn-2 position yielding a free fatty acid and a lysophospholipid. The release of arachidonic acid from membrane phospholipids by PLA is believed to be a key step in the control of eicosanoid production within the cell. The Bee Venom PLA2 Control was a 100 μg/ml solution of bee venom PLA2 is supplied as a positive control in the kit (Abcam kit catalog number ab133089). Substrate for MP was DQ Gelatin and assay run per EnzChek gelatinase assay manufacturers instructions. Venom MP activity was not optimized in initial experiments, but reaction rates were during experiments performed by an independently contracted laboratory. SP assay was performed using Nα-Benzoyl-L-arginine-7-amido-4-methylcoumarin hydrochloride. These kits were stored as specified if stored at −20° C. Unless otherwise specified, in the case of my experiments, only crude, unfractionated lyophilized venom purchased from Sigma or the Miami Serpentarium were used. Plate Setup: Manufacturers guidelines (paraphrased herein) were followed unless otherwise specified. Data Analysis: xcel per manufacturers recommendations. MP and SP assays were prepared and plated in the same manner as PLA2 assays except substrates and fluorophores were different. PBS was the buffer in the case of MP and SP assays and absorbance measured at 495 nm. […]
(§5) Small molecule screening and dose-response experiments took place in the Yale Center for Molecular Discovery. […] PerkinElmer EnVision (3) and Tecan infinite M1000 (2) plate readers sensitively measure absorbance, fluorescence, fluorescence polarization and luminescence in 96- and 384-well plate formats. […]

[6] = test system: D. russelli venom; test: survival of mice given Daboia russelli venom (FIG. 8); assay type: in vivo; conditions: varespladib 4 mg/kg SC 60 to 90 minutes before lethal dose of D. russelli venom; N=3
[7] = test system: Crotalus otrox venom PLA2; test: venom sPLA2 inhibition IC50, varespladib and CroFab alone and together; assay type: biochemical, Crotalus atrox
Experimental: as §4, with “Plate Setup: Manufacturers guidelines (paraphrased herein) were followed unless otherwise specified. Data Analysis: xcel per manufacturers recommendations. MP and SP assays were prepared and plated in the same manner as PLA2 assays except substrates and fluorophores were different.” left out
as §5

[8] = test system: snake venom metalloproteinase; test: time course of metalloproteinase activity with excess venom (FIG. 2A); assay type: biochemical; conditions: inhibitors 100 uM; venom 0.444 mg/mL
Experimental: Substrate for MP was DQ Gelatin and assay run per EnzChek gelatinase assay manufacturers instructions. Venom MP activity was not optimized in initial experiments, but reaction rates were during experiments performed by an independently contracted laboratory. SP assay was performed using Nα-Benzoyl-L-arginine-7-amido-4-methylcoumarin hydrochloride. […] Unless otherwise specified, in the case of my experiments, only crude, unfractionated lyophilized venom purchased from Sigma or the Miami Serpentarium were used. Plate Setup: Manufacturers guidelines (paraphrased herein) were followed unless otherwise specified. Data Analysis: xcel per manufacturers recommendations. MP and SP assays were prepared and plated in the same manner as PLA2 assays except substrates and fluorophores were different. PBS was the buffer in the case of MP and SP assays and absorbance measured at 495 nm. Substrate for MP was DQ Gelatin and assay run per EnzChek gelatinase assay manufacturers instructions except that experiments were run, unconventionally at 37 C to estimate human body temperature and initial experiments for PLA2, MP activity and SP activity were not optimized for screening (e.g. extremely high doses of venom were used—10 mg/mL stock in all cases since the quality of the venom was unknown with final concentration of 0.444 mg/mL in the test wells). SP assay was performed using Na-Benzoyl-L-arginine-7-amido-4-methylcoumarin hydrochloride (Sigma). Specifics of contract laboratory technique vary from the present inventor's initial experiments in terms of venom and substrate optimization, plate size (384 instead of 96), volume and temperature and other factors including different operators such as those described immediately below, performed following the first pilot experiments and subsequently extended by a contract laboratory.
(§9) Screening was carried out for inhibitors of venom sPLA2, MP and SPs. Stock solutions of venom at 10 mg/mL were used without typical dilution for assaying various inhibitors of sPLA2, MP and SPs. The final venom concentration in the assays was very high at 0.444 mg/mL.

[9] = test system: snake venom PLA2; test: time course of PLA2 activity with excess venom (FIG. 1); assay type: biochemical; conditions: inhibitor 100 uM; venom 0.444 mg/mL final; 37 C
Text: Plate Setup: Manufacturers guidelines (paraphrased herein) were followed unless otherwise specified. Data Analysis: xcel per manufacturers recommendations. […] Substrate for MP was DQ Gelatin and assay run per EnzChek gelatinase assay manufacturers instructions except that experiments were run, unconventionally at 37 C to estimate human body temperature and initial experiments for PLA2, MP activity and SP activity were not optimized for screening (e.g. extremely high doses of venom were used—10 mg/mL stock in all cases since the quality of the venom was unknown with final concentration of 0.444 mg/mL in the test wells).
as §9

[10] = test system: Daboia russelli venom MP; test: metalloproteinase activity over time, Daboia russelli venom (FIG. 2B); assay type: biochemical; conditions: 100 uM; venom 0.444 mg/mL
Experimental: Substrate for MP was DQ Gelatin and assay run per EnzChek gelatinase assay manufacturers instructions. Venom MP activity was not optimized in initial experiments, but reaction rates were during experiments performed by an independently contracted laboratory. […] These kits were stored as specified if stored at −20° C. Unless otherwise specified, in the case of my experiments, only crude, unfractionated lyophilized venom purchased from Sigma or the Miami Serpentarium were used. Plate Setup: Manufacturers guidelines (paraphrased herein) were followed unless otherwise specified. Data Analysis: xcel per manufacturers recommendations. MP and SP assays were prepared and plated in the same manner as PLA2 assays except substrates and fluorophores were different. PBS was the buffer in the case of MP and SP assays and absorbance measured at 495 nm. Substrate for MP was DQ Gelatin and assay run per EnzChek gelatinase assay manufacturers instructions except that experiments were run, unconventionally at 37 C to estimate human body temperature and initial experiments for PLA2, MP activity and SP activity were not optimized for screening (e.g. extremely high doses of venom were used—10 mg/mL stock in all cases since the quality of the venom was unknown with final concentration of 0.444 mg/mL in the test wells). […]

[11] = test system: snake venom serine proteases; test: serine protease activity with excess venom (FIG. 3); assay type: biochemical; conditions: 100 um; venom 0.444 mg/mL; compared to marimastat and batimastat
Experimental: Substrate for MP was DQ Gelatin and assay run per EnzChek gelatinase assay manufacturers instructions. Venom MP activity was not optimized in initial experiments, but reaction rates were during experiments performed by an independently contracted laboratory. SP assay was performed using Nα-Benzoyl-L-arginine-7-amido-4-methylcoumarin hydrochloride. […] Unless otherwise specified, in the case of my experiments, only crude, unfractionated lyophilized venom purchased from Sigma or the Miami Serpentarium were used. Plate Setup: Manufacturers guidelines (paraphrased herein) were followed unless otherwise specified. Data Analysis: xcel per manufacturers recommendations. MP and SP assays were prepared and plated in the same manner as PLA2 assays except substrates and fluorophores were different. PBS was the buffer in the case of MP and SP assays and absorbance measured at 495 nm. Substrate for MP was DQ Gelatin and assay run per EnzChek gelatinase assay manufacturers instructions except that experiments were run, unconventionally at 37 C to estimate human body temperature and initial experiments for PLA2, MP activity and SP activity were not optimized for screening (e.g. extremely high doses of venom were used—10 mg/mL stock in all cases since the quality of the venom was unknown with final concentration of 0.444 mg/mL in the test wells). […]

[12] = test system: M. fulvius venom; test: treatment of rats after M. fulvius venom (FIG. 6E-H); assay type: in vivo; conditions: varespladib IV
Experimental: as §2, §3

[13] = test system: Crotalus scutulatus scutulatus venom PLA2; test: venom sPLA2 inhibition IC50, varespladib and CroFab alone and together; assay type: biochemical
Experimental: (§6) Background. Phospholipase A2 (PLA2) catalyzes the hydrolysis of phospholipids at the sn-2 position yielding a free fatty acid and a lysophospholipid. The release of arachidonic acid from membrane phospholipids by PLA is believed to be a key step in the control of eicosanoid production within the cell. The Bee Venom PLA2 Control was a 100 μg/ml solution of bee venom PLA2 is supplied as a positive control in the kit (Abcam kit catalog number ab133089). Substrate for MP was DQ Gelatin and assay run per EnzChek gelatinase assay manufacturers instructions. Venom MP activity was not optimized in initial experiments, but reaction rates were during experiments performed by an independently contracted laboratory. SP assay was performed using Nα-Benzoyl-L-arginine-7-amido-4-methylcoumarin hydrochloride. These kits were stored as specified if stored at −20° C. Unless otherwise specified, in the case of my experiments, only crude, unfractionated lyophilized venom purchased from Sigma or the Miami Serpentarium were used. Plate Setup: Manufacturers guidelines (paraphrased herein) were followed unless otherwise specified. Data Analysis: xcel per manufacturers recommendations. MP and SP assays were prepared and plated in the same manner as PLA2 assays except substrates and fluorophores were different. PBS was the buffer in the case of MP and SP assays and absorbance measured at 495 nm. Substrate for MP was DQ Gelatin and assay run per EnzChek gelatinase assay manufacturers instructions except that experiments were run, unconventionally at 37 C to estimate human body temperature and initial experiments for PLA2, MP activity and SP activity were not optimized for screening (e.g. extremely high doses of venom were used—10 mg/mL stock in all cases since the quality of the venom was unknown with final concentration of 0.444 mg/mL in the test wells). SP assay was performed using Na-Benzoyl-L-arginine-7-amido-4-methylcoumarin hydrochloride (Sigma). Specifics of contract laboratory technique vary from the present inventor's initial experiments in terms of venom and substrate optimization, plate size (384 instead of 96), volume and temperature and other factors including different operators such as those described immediately below, performed following the first pilot experiments and subsequently extended by a contract laboratory.
(§7) Small molecule screening and dose-response experiments took place in the Yale Center for Molecular Discovery. Instrumentation used when indicated included Tecan EVO (2), Tecan Aquarius, Matrix PlateMatePlus (2), Matrix PlateMate2×2 liquid transfer robots and Titertek and Thermo Multidrop liquid dispensers (7). PerkinElmer EnVision (3) and Tecan infinite M1000 (2) plate readers sensitively measure absorbance, fluorescence, fluorescence polarization and luminescence in 96- and 384-well plate formats. A GE InCell Analyzer 2200 imaging system acquires multicolor fluorescent and transmitted light images from plates. Piloting collections used in the first phases of screening were selected by the inventor or from libraries of known compounds and natural products available at the time of experiments on selected venoms including: NCC, GenPlus, Pharmakon, Bioactive lipids, Protease Inhibitors, Procured Drugs and FDA Approved Drugs libraries. The GenPlus (the NINDS Custom Collection) from MicroSource Discovery Systems contains 960 compounds. This unique selection of known bioactive compounds permits the simultaneous evaluation of hundreds of marketed drugs and biochemical standards. The Pharmakon 1600 collection (MicroSource) includes known drugs used globally or studied in clinical trials.
(§8) Each assay was characterized in similar fashion, using methodology well-established in the Center. Assays are typically performed in 384-well microtiter plates.

[14] = test system: Agkistrodon piscivorus venom PLA2; test: as above; assay type: biochemical
Experimental: as §6, §7, §8

[15] = test system: Acanthophis antarcticus venom PLA2; test: as above; assay type: biochemical
Experimental: as §6, §7, §8

[16] = test system: Agkistrodon contortrix venom PLA2; test: as above; assay type: biochemical
Experimental: as §6, §7, §8

[17] = test system: Crotalus adamanteus venom PLA2; test: as above; assay type: biochemical
Experimental: as §6, §7, §8

[18] = test system: Vipera berus venom; test: survival of mice given Vipera berus venom (FIG. 9); assay type: in vivo; conditions: for survival versus controls: N=7
Text: as §1

[19] = test system: C. atrox venom MP; test: HTS for inhibitors of C. Atrox venom MP; assay type: biochemical
Experimental: as §6
as §7, with “This unique selection of known bioactive compounds permits the simultaneous evaluation of hundreds of marketed drugs and biochemical standards. The Pharmakon 1600 collection (MicroSource) includes known drugs used globally or studied in clinical trials.” left out

[20] = test system: E. carinatus venom MP; test: HTS for inhibitors of E. carinatus venom MP; assay type: biochemical; conditions: compounds approximately 10 μM/well
Experimental: as §6
as §7, with “This unique selection of known bioactive compounds permits the simultaneous evaluation of hundreds of marketed drugs and biochemical standards. The Pharmakon 1600 collection (MicroSource) includes known drugs used globally or studied in clinical trials.” left out

[21] = target: snake venom metalloproteinase; test: IC50 for MP inhibition on various venoms (Table 8, FIG. 20); assay type: biochemical; conditions: general statement; values only in figures
[22] = test system: M. fulvius venom PLA2; test: HTS for inhibitors of M. fulvius venom PLA2; assay type: biochemical; conditions: compounds approximately 10 μM/well
[23] = varespladib alone, read-out: Varespladib (IC50 nM)
[24] = varespladib and CroFab ® together, read-out: Varespladib IC50 (nM) With CroFab ®

Sequence of bee venom PLA2 (P00630 34-167 limits assumed): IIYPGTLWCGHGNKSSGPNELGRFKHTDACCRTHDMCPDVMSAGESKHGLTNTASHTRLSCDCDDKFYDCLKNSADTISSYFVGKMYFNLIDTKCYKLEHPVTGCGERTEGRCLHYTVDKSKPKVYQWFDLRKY

In the case of `CCc1c(C(=O)C(N)=O)c2c(OCC(=O)O)cccc2n1Cc1ccccc1` [Varespladib], the “inhibition of bee venom PLA2” value [1] is reported as “not inhibited; also recorded: only a modest effect”, the “survival versus venom only controls” value [2] is reported as “outlived controls” and the signs of toxicity [3] is reported as “no signs of toxicity”. For the same compound, the “mice that died within 8 hours” value ([4]; varespladib 4 mg/kg SC minutes before M. fulvius venom 4 mg/kg SC) was 0 of 5, the “mice survived to the endpoint of 24 hours” value ([4]; {}) was 5/5 and the “inhibition of snake venom PLA2 in vitro” value [5] was “inhibited snake venom PLA2; also recorded: inhibited the measured sPLA2 activity of several medically important snake venoms”. The IC50 ([5]; read-out: IC50s specific for snake venoms, lowest value) was no less than 0.05 nM, the “survival at 24 hours” value [6] was “all survived 24 hours” and the survival versus controls [6] was “outlived controls”. The IC50 [7, 23] was 0.32 nM, the IC50 [7, 24] was 0.07 nM and the “inhibition of metalloproteinase activity (time course)” value [8] was “showed inhibition of MP activity in several snake venoms”. For the same compound, the “inhibition of snake venom PLA2 activity (time course)” value [9] was “inhibited PLA2 activity in all snake venoms tested”, the “inhibition of Daboia russelli venom MP over time” value [10] was “comparable inhibition” and the “inhibitory effects on snake venom serine proteases” value [11] was “unexpected inhibitory effects”. For the same compound, the “sPLA2 activity in blood samples” value ([12]; high dose coral snake venom SC, baseline, 30 minutes, 1 hour, 4 hours) was “dramatic suppression of sPLA2 activity”, the “gross hemolysis in serum samples” value ([12]; venom SC) was “no or minimally visible hemolysis” and the “pulmonary hemorrhage at necropsy” value ([12]; venom SC) was “either no or minimal pulmonary hemorrhage”. The IC50 [13, 23] was 1.51 nM, the IC50 [13, 24] was 0.82 nM and the IC50 [14, 23] was 0.28 nM. The IC50 [14, 24] was 0.05 nM, the IC50 [15, 23] was 0.74 nM and the IC50 [15, 24] was 0.43 nM. It also gave an IC50 [16, 23] of 0.22 nM, an IC50 [16, 24] of 0.045 nM and an IC50 [17, 23] of 0.25 nM. The IC50 [17, 24] was 0.05 nM, the “animals that outlived controls” value ([18]; Venom SC followed by Varespladib SC 8 mg/kg) was 4 of 5 and the survival versus controls ([18]; lethal venom dose just prior to SC varespladib) was “outlived controls”. The “animals surviving 24 hours” value ([18]; varespladib IV 8 mg/kg lateral tail vein following venom) was 5 of 5 and the survival versus controls ([18]; venom and varespladib injected simultaneously SC) was “outlived controls”.
In the case of `O=C(CCCCCCC(=O)Nc1ccccc1)NO` [Vorinostat], the “percental (%) reduction of MP activity” value ([19]; compounds approximately 10 μM/well) is reported as 42%.
With `CCCCN1CCCCC1C(=O)Nc1c(C)cccc1C` (stereo not drawn) [bupvicaine] the “% Effect on E. carinatus venom MP” value [20] was greater than 10%.
In the case of `CCN(CC)CCN(Cc1ccc(-c2ccc(C(F)(F)F)cc2)cc1)C(=O)Cn1c(SCc2ccc(F)cc2)nc(=O)c2c1CCC2` [darapladib], the “inhibition of bee venom PLA2” value [1] is reported as “not inhibited”.
In the case of `CCOC(=O)c1ccc(OC(=O)CCCCCNC(=N)N)cc1` [gabexate, ethyl-p[6-guanidinohexanoyloxy]-benzoate methansulfonate], the “IC50s on various venoms” value [21] is reported as “micromolar range”, the “% Effect on E. carinatus venom MP” value [20] is reported as 23% and the “MP inhibition (in words)” value [19] is reported as “MP inhibition was seen”.
For `CNC(=O)[C@@H](NC(=O)[C@H](CC(C)C)[C@H](O)C(=O)NO)C(C)(C)C` [marimastat], the “inhibition of metalloproteinase activity (time course)” value [8] was “most consistently showing significant inhibition” and the “inhibition of Daboia russelli venom MP over time” value [10] was “comparable inhibition”.
With `CCc1c(C(=O)C(N)=O)c2c(OCC(=O)OC)cccc2n1Cc1ccccc1` [methylvarespladib] the “inhibition of bee venom PLA2” value [1] was “only a modest effect”, the “signs or symptoms of envenomation / protection from the effects of the venom” value ([4]; methylvarespladib fed ad libitum in biscuits, high-dose venom ~5 hours later, N=2) was “complete protection; also recorded: Neither treated mouse exhibited any signs or symptoms of envenomation” and the “inhibition of snake venom PLA2 in vitro” value [5] was “inhibited the measured sPLA2 activity of several medically important snake venoms”. For the same compound, the “inhibitory effects on snake venom serine proteases” value [11] was “unexpected inhibitory effects”.
For Ceramide, the “% effect (% inhibition) on M. fulvius venom PLA2” value [22] was 43%.
